From patent publication US5908781A, “Monoclonal antibodies to ceftiofur” (The United States of America as represented by the …, priority 1996, dated 1999)

Assays:
Cef-68 = test: Competitive indirect ELISA (ciELISA), competitor inhibition of MAb Cef-68 binding; set-up: species or system Balb/c mice; conditions: for IC50 (ppb) Values for Antibodies, Cef-68: MAb Cef-68, final dilution 1:20, BSA-S-GMBS-Cef-coated plates, value ± standard deviation, average of 3-6 determinations; for binding with MAb Cef-68 (in words): ciELISA cross-reactivity
Description: (§1) The supernatant culture fluid from the cloned hybridomas may also be screened to select for those producing antibodies having a high affinity for ceftiofur. Affinity may be measured using a variety of well known techniques, such as ELISA, RIA or equilibrium dialysis using labeled ceftiofur. […] In accordance with this embodiment, the antibody containing supernatant is added to a ceftiofur or ceftiofur-complex coated substrate such as the wells of a microtiter plate, together with a range of concentrations of free ceftiofur as a competitor. Following incubation and washing, bound antibody in the wells is determined in the same manner as the db-ELISA. Percent inhibition may be calculated as (1-B/Bo)×100, where B is the optical density (OD) of a well with a competitor and Bo is the mean OD of the wells without competitor (control). […] However, for greater accuracy, the affinity may be alternatively measured at 50% inhibition (IC50).
(§2) Antibodies and ELISA Methods. A standard indirect ELISA method in which the hapten conjugate is immobilized on 96-well microtiter plates was used to evaluate the response of Balb/c mice towards the immunogen KLH-SMCC-desCef. The microtiter immunoplates (PGC Scientifics, Gaithersburg, Md.) were washed three times with a solution of 0.05% (v/v) polyoxyethylene sorbitan monolaurate (TWEEN 20)(Sigma Chemical Co., St. Louis, Mo.) in deionized water (TWEEN 20-water) and then coated with 100 μL of the coating antigen, BSA-SMCC-desCef (100 ng/well) in deionized water. The plates were dried overnight at 37° C. The plates were then washed three times with PBS-9 (0.01M sodium phosphate, 0.15M sodium chloride, pH 9) and the unbound active sites were blocked with 200 μL of 3% (w/v) nonfat milk in PBS-9 for 30 min at 37° C. The plates were washed three times with PBS-9, and 100 μL of supernatant containing the antibody was added to the microtiter plates, which were subsequently incubated for 60 min at 37° C. The unbound antibody was removed by washing the plate five times with TWEEN 20-water. Next, 50 μL of goat anti-mouse IgG-peroxidase conjugate (1:500 dilution)(Sigma Chemical Co., St. Louis, Mo.) was added, followed by incubation of the plates at 37° C. for 60 min. Finally, the plates were washed five times with TWEEN 20-water, 100 μL of K-blue substrate (Elisa Technologies, Lexington, Ky.) was added, and the absorbance was read at 655 nm.
(§3) For the ciELISA, the plates were prepared as above except that BSA-S-GMBS-Cef was used as the plate-coating antigen. Competitors were prepared in assay buffer (0.1M Tris, 0.15M sodium chloride, 0.01% (w/v) nonfat milk in deionized water, pH 7.75), added to the wells, and diluted in a 2-fold fashion immediately prior to addition of the anticeftiofur monoclonal antibody (Mab). Tissue culture media containing the anticeftiofur MAbs were used at a final dilution of 1:20 and 1:100 (for MAbs Cef-68 and Cef-116, respectively). The following competitors were used in a cross-reactivity study: ceftiofur sodium, cefteram sodium (Hoffmann-La Roche Inc., Nutley, N.J.), ceftriaxone sodium (Hoffmann-La Roche), cefuroxime sodium (Glaxo Man. Serv. Ltd., Barnard Castle, County Durham, England), ceftazidime pentahydrate (Glaxo), amoxicillin, ampicillin sodium, cefaclor, cefadroxil, cefamandole sodium, cefazolin sodium, cefoperazone sodium, cefotaxime sodium, cefoxitin sodium, cefsulodin sodium, cephalothin sodium, cephapirin sodium, cephradine, cloxacillin sodium, and penicillin-G sodium. Except where indicated otherwise, competitors were obtained from Sigma Chemical Co. (St. Louis, Mo.). The competitors were diluted to afford a solution containing a concentration range of 100-1000 ng/well in column 2 of the 96-well microtiter plates. Each competitor was serially diluted across the plate with columns 11 and 12 serving as controls (i.e. no competitor).

Cef-116 = test: Competitive indirect ELISA (ciELISA), competitor inhibition of MAb Cef-116 binding; set-up: species or system Balb/c mice; conditions: for IC50 (ppb) Values for Antibodies, Cef-116: MAb Cef-116, final dilution 1:100, BSA-S-GMBS-Cef-coated plates, value ± standard deviation, average of 3-6 determinations; for IC50 compared to ceftiofur, MAb Cef-116 (in words): ciELISA cross-reactivity; for fold reduction of binding: MAb Cef-116, printed "as compared to MAb Cef-68"
Description: as §1, §2, §3

| Compound | IC50 (ppb) Values for Antibodies, Cef-68 (Cef-68) | binding with MAb Cef-68 (in words) (Cef-68) | IC50 (ppb) Values for Antibodies, Cef-116 (Cef-116) | IC50 compared to ceftiofur, MAb Cef-116 (in words) (Cef-116) | fold reduction of binding (Cef-116) |
| --- | --- | --- | --- | --- | --- |
| CO/N=C(\C(=O)N[C@@H]1C(=O)N2C(C(=O)O)=C(COC(C)=O)CS[C@H]12)c1csc(N)n1 [Cefotaxime, cefotaxime] | 79.67 ± 0.58 ppb | observed to bind | 0.48 ± 0.05 ppb | IC50 values comparable to those observed with ceftiofur |  |
| CO/N=C(\C(=O)N[C@@H]1C(=O)N2C(C(=O)O)=C(CSC(=O)c3ccco3)CS[C@H]12)c1csc(N)n1 [Ceftiofur, ceftiofur] | 32.33 ± 0.58 ppb |  | 0.33 ± 0.05 ppb |  |  |
| CO/N=C(\C(=O)N[C@@H]1C(=O)N2C(C(=O)O)=C(CSc3nc(=O)c(=O)[nH]n3C)CS[C@H]12)c1csc(N)n1 [Ceftriaxone, ceftriaxone] | 38.67 ± 8.62 ppb | observed to bind | 0.33 ± 0.05 ppb | IC50 values comparable to those observed with ceftiofur |  |
| CO/N=C(\C(=O)N[C@@H]1C(=O)N2C(C(=O)O)=C(COC(N)=O)CS[C@H]12)c1ccco1 [Cefuroxime, cefuroxime] |  |  | 406.67 ± 130.13 ppb |  | 100 fold |
| CO/N=C(\C(=O)N[C@@H]1C(=O)N2C(C(=O)O)=C(Cn3nnc(C)n3)CS[C@H]12)c1csc(N)n1 [Cefteram, cefteram] | 200.00 ± 10.00 ppb | observed to bind | 3.57 ± 0.75 ppb |  | 10 fold |
